In data set [1] the test system is codeinone reductase isoforms. It counts as biochemical, Papaver somniferum. Particulars: for serves as substrate in the reductive reaction: NADPH as cofactor, physiologically forward reaction. How it is done: The two other potential substrates for reduction, the 1,2-dehydroreticulinium ion and salutaridine (FIG. 1), or for the physiologically reverse reaction, salutaridinol and (R)-reticuline, were tested as substrates; with the codeinone reductase isoforms.
In order to test for a functional evolutionary relationship between isoflavonoid and alkaloid anabolism, codeinone reductase was analyzed for the ability to substitute for the reductase in the formation of 6-deoxychalcone in co-action with either native chalcone synthase or native stilbene synthase from Pinus sylvestris.

The target of a further data set is COR1.2 (Papaver somniferum, UniProt Q9SQ69). Kind of data set: Km determination with purified recombinant codeinone reductase isoform COR1.2.
Sequence of COR1.2 (Q9SQ69 whole entry, canonical isoform): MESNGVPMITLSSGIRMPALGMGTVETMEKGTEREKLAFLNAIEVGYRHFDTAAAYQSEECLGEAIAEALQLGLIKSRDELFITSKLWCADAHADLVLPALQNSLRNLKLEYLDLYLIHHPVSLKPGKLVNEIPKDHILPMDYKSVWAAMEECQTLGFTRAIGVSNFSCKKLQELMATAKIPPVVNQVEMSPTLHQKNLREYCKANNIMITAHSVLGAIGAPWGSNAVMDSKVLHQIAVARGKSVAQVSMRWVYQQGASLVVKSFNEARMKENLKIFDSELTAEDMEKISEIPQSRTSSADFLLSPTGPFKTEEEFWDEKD
For a further data set, the target named is COR1.3 (Papaver somniferum, UniProt Q9SQ68). Kind of data set: Km determination with purified recombinant codeinone reductase isoform COR1.3.
Sequence of COR1.3 (Q9SQ68 whole entry, canonical isoform): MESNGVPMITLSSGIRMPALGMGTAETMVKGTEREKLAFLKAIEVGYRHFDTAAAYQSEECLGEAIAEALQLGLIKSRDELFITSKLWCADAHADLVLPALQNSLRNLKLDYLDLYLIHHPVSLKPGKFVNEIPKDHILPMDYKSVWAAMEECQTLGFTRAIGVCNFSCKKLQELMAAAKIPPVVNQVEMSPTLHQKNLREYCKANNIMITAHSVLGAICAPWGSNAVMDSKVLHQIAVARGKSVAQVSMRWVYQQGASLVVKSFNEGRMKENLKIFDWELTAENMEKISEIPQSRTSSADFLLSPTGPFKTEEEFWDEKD
Data set [2] deals with T1, reductase of the 6′-deoxychalcone synthase complex (Glycine max, UniProt P26690).
T1 sequence (P26690 1-315): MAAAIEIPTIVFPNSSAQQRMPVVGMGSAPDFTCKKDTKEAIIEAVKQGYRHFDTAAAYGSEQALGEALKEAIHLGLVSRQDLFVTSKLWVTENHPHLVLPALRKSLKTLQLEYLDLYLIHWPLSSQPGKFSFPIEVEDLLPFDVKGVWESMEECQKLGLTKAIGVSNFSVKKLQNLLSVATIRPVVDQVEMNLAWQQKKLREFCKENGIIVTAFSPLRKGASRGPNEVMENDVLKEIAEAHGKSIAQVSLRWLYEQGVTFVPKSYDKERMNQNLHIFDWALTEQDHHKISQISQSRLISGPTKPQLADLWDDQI
Kind of data set: Codeinone/codeine conversion by the reductase of the 6'-deoxychalcone synthase complex. Type of data set: biochemical, soybean. Particulars: in the presence of NADPH.

The subject of data set [3] is COc1ccc2c3c1O[C@H]1C(=O)C=C[C@H]4[C@@H](C2)N(C)CC[C@]314. Kind of data set: cells, lysate or membranes named.
Method: (§1) The four codeinone reductase isoform-calmodulin-binding peptide fusion proteins were purified from E. coli lysates in one step with a calmodulin affinity column.
(§2) For all isoforms, the temperature optimum for reduction (physiologically forward reaction) was 28° C., for oxidation (physiologically reverse reaction) was 30° C., the pH optimum for reduction was 6.8 and for oxidation was 9.0.
(§3) For enzyme assays, single colonies were picked and grown in 3 ml Luria-Bertani medium containing 100 μg/ml ampicillin at 37° C. to an OD590 of 0.8. For protein purification, single colonies were picked and grown in 1 l Luria-Bertani medium containing 100 μg/ml ampicillin at 37° C. to an OD590 of 1.8. […] The bacterial pellet from a 3 ml culture was resuspended in 0.5 ml buffer and that from a one liter culture in 100 ml buffer. The cells were ruptured by sonication.
Where [4] appears, read: analogs and aldo/keto reductase family substrates, direction not given.
[5] abbreviates: NADP as cofactor, physiologically reverse reaction.

“Also recorded” adds a separate entry of the source. Like-named read-outs stand apart in the source and are kept apart here.

Method for COR1.2: as §1, §2, §3
Method for COR1.3: as §1, §2, §3

`COc1ccc(C[C@@H]2NCCc3cc(OC)c(O)cc32)cc1O` (mixture of isomers) [(S)-norreticuline, (S) and (R)-norreticuline]: the “transformed by codeinone reductase (tested as substrate)” value (“transformed by codeinone reductase” for short) in data set [1] (setting [4]) is “inactive”.

Regarding `COc1ccc(CC2=[N+](C)CCc3cc(OC)c(O)cc32)cc1O` [1,2-dehydroreticulinium ion], the “serves as substrate in the reductive reaction” value in data set [1] was “None of these alkaloids served as substrate”.

Turning to `O=C1C=CCCC1` [2-cyclohexene-1-one], the “transformed by codeinone reductase” value in data set [1] (setting [4]) is “not transformed”.

Regarding `C[C@]12CC[C@H]3[C@@H](CC=C4C[C@@H](O)CC[C@@]43C)[C@@H]1CC[C@@H]2O` [5-androstene-3β,17β-diol], in data set [1], the “transformed by codeinone reductase” value is listed as “not transformed”.

As to `C[C@]12CCC(=O)C[C@@H]1CC[C@@H]1[C@@H]2CC[C@]2(C)[C@@H](O)CC[C@@H]12` [5α-androstan-17β-ol-3-one], the “transformed by codeinone reductase” value in data set [1] is listed as “not transformed”.

With `CC(C)CCC[C@@H](C)[C@H]1CC[C@H]2[C@@H]3CC[C@H]4C[C@@H](O)CC[C@]4(C)[C@H]3CC[C@]12C` [5α-cholestane-3β-ol], in data set [1] (setting [4]), the “transformed by codeinone reductase” value is given as “not transformed”.

Take `COc1ccc(C[C@H]2NCCc3cc(OC)c(O)cc32)cc1O` [(R)-norreticuline]: in data set [1] (setting [4]), the “transformed by codeinone reductase” value was “inactive”.

Regarding `COc1ccc(C[C@@H]2c3cc(O)c(OC)cc3CCN2C)cc1O` [(R)-reticuline], the “serves as substrate in the oxidative reaction” value in data set [1] (setting [5]) was “None of these alkaloids served as substrate”.

For `COc1ccc(C[C@H]2c3cc(O)c(OC)cc3CCN2C)cc1O` [(S)-reticuline], the “transformed by codeinone reductase” value in data set [1] (setting [4]) was “inactive”.

Regarding `O=P(O)(O)OC[C@@H](O)[C@@H](O)[C@H](O)[C@@H](O)CO` [D-Sorbitol-6-phosphate], the “transformed by codeinone reductase” value in data set [1] (setting [4]) is listed as “not transformed”.

Take `O=C[C@H](O)[C@@H](O)[C@H](O)CO` [D-xylose]: the “transformed by codeinone reductase” value in data set [1] (setting [4]) is given as “not transformed”.

As for `NC(=O)C1=CN([C@@H]2O[C@H](COP(=O)(O)OP(=O)(O)OC[C@H]3O[C@@H](n4cnc5c(N)ncnc54)[C@H](O)[C@@H]3O)[C@@H](O)[C@H]2O)C=CC1` [NADH], the “ability to substitute for NADPH as cofactor” value in data set [1] (any of the isoforms) is reported as “could not substitute for NADPH”.

Take `NC(=O)C1=CN([C@@H]2O[C@H](COP(=O)(O)OP(=O)(O)OC[C@H]3O[C@@H](n4cnc5c(N)ncnc54)[C@H](OP(=O)(O)O)[C@@H]3O)[C@@H](O)[C@H]2O)C=CC1` [NADPH]: the Michaelis constant (Km) on COR1.2 amounted to 220 µM.

For the compound `NC(=O)c1ccc[n+]([C@@H]2O[C@H](COP(=O)([O-])OP(=O)(O)OC[C@H]3O[C@@H](n4cnc5c(N)ncnc54)[C@H](OP(=O)(O)O)[C@@H]3O)[C@@H](O)[C@H]2O)c1` [NADP], the Km on COR1.2 is 58 µM; at COR1.3 it was 45 µM.

For the compound `COc1ccc2c3c1O[C@H]1C(=O)C=C[C@H]4[C@@H](C2)N(C)CC[C@]314` [codeinone], the “reduction by the reductase of the 6′-deoxychalcone synthase complex” value in data set [2] is on record as “could neither reduce”.

For `O=C1CCCCC1` [cyclohexanone], the “transformed by codeinone reductase” value in data set [1] (setting [4]) is recorded as “not transformed”.

In the case of `COc1ccc2c3c1O[C@H]1[C@@H](O)CC[C@H]4[C@@H](C2)N(C)CC[C@@]341` [dihydrocodeine], the “serves as substrate in the oxidative reaction” value in data set [1] (setting [5]) is recorded as “functions”.

`COc1ccc2c3c1O[C@H]1C(=O)CC[C@H]4[C@@H](C2)N(C)CC[C@]314` [hydrocodone]: the “serves as substrate in the reductive reaction” value in data set [1] is “functions”.

Turning to `CN1CC[C@]23c4c5ccc(O)c4O[C@H]2[C@@H](O)C=C[C@H]3[C@H]1C5` [morphine], the “serves as substrate in the oxidative reaction” value in data set [1] was “functions”.

Turning to `CN1CC[C@]23c4c5ccc(O)c4O[C@H]2C(=O)C=C[C@H]3[C@H]1C5` [morphinone], the “serves as substrate in the reductive reaction” value in data set [1] is reported as “functions; also recorded: able to reduce”.

Consider `COc1ccc2c3c1O[C@H]1[C@@H](O)C=C[C@H]4[C@@H](C2)NCC[C@@]341` [norcodeine], for which the “transformed by codeinone reductase” value in data set [1] was “inactive”.

Take `CCCCC[C@H](O)/C=C/[C@H]1C(=O)C[C@H](O)[C@@H]1CCCCCCC(=O)O` [prostaglandin D1]: in data set [1] (setting [4]), the “transformed by codeinone reductase” value is on record as “not transformed”.

Consider `COC1=C[C@]23CCN(C)[C@H](Cc4ccc(OC)c(O)c42)C3=CC1=O` [salutaridine], for which the “serves as substrate in the reductive reaction” value in data set [1] is given as “None of these alkaloids served as substrate”.

As for `COC1=C[C@]23CCN(C)[C@H](Cc4ccc(OC)c(O)c42)C3=C[C@@H]1O` [salutaridinol], in data set [1] (setting [5]), the “serves as substrate in the oxidative reaction” value is on record as “None of these alkaloids served as substrate”.

As for COR1.2 (Papaver somniferum), the Km in data set [3] amounted to 62 µM.

Take COR1.3 (Papaver somniferum): in data set [3], the Km was 48 µM.

What is called Km is the concentration of substrate that gives half-maximal velocity.

For the origin of these results see patent US7193127B1, “Codeinone reductase from alkaloid poppy” (priority 1999, dated 2007).
